Assay results from US20090202572A1, “COMPOSITIONS AND METHODS FOR MODULATING BONE MASS” (priority 2004, published 2009).
“Also recorded” adds a separate entry of the source. Where two headings read alike, the source gives them in different places.

Legend:
mature osteoclasts = experiment: cAMP production in mature osteoclasts (EIA); assay type: cell-based, mouse; details: ISO 10 μM, calcitonin 100 pg/ml
Description: (§1) (a) In vitro osteoclastogenesis is not affected by Adrb2 deficiency. BBMs were differentiated with the indicated amounts of RANK-L and MCS-F and the number of TRAP+ osteoclasts was counted after 5 days. (b) In vitro osteoclast differentiation is not affected by Isoproterenol (ISO) treatment. BBMs were differentiated in presence of MCS-F and RANK-L with or without 10 uM ISO and the number of TRAP+ osteoclasts was counted after 5 days. […] BBMs were differentiated in presence of MCS-F and RANK-L and were treated by ISO (10 μM), dobutamine (Dobu, 10 μM) or calcitonin (100 pg/ml). Intracellular cAMP production was measured by EIA. (d) ISO stimulated osteoclast differentiation via stimulation of b2AR in osteoblasts. Osteoblasts and BMMs were co-cultured with 1,25(OH)2-vitamin D (10^-8 M) with or without ISO (10 uM) and the number of TRAP+ osteoclasts was counted after 4 days. (e) ISO induced Rank-l expression in osteoblasts, via b2AR. (f) ISO induced IL6 expression in osteoblasts, via b2AR. WT and Adrb2 primary osteoblasts were treated for the indicated time with ISO (10 μM) and gene expression was quantified by real-time RT-PCR. (g) Schematic diagram of the structure of Rank-1 and IL6 promoters. Boxes represent CREB-like consensus binding sites.
To test whether sympathetic signaling could affect osteoclast function, we treated TRAP-positive multinucleated osteoclasts with isoproterenol.

WT osteoblasts = experiment: cAMP production in osteoblasts; assay type: cell-based, mouse
Excerpt: β2AR is the only post-synaptic β-AR whose expression can be detected in osteoblasts. […] Thus, we used Adrb2−/− mice to study how sympathetic signaling affects bone remodeling in adult animals.

[1] = system: bone marrow macrophages (BMMs); experiment: In vitro osteoclast differentiation of BMMs with RANK-L and M-CSF (TRAP+ count); assay type: cell-based, mouse; details: 10 uM ISO, counted after 5 days
Description: as §1, with “BBMs” for “(a) In vitro osteoclastogenesis is not affected by Adrb2 deficiency. BBMs”, “(b) In vitro osteoclast differentiation is not affected by Isoproterenol (ISO) treatment.” left out, “(d) ISO stimulated osteoclast differentiation via stimulation of b2AR in osteoblasts.” left out, “(e) ISO induced Rank-l expression in osteoblasts, via b2AR. (f) ISO induced IL6 expression in osteoblasts, via b2AR.” left out

WT mature osteoclasts = experiment: Osteoclast function: resorption pits on dentine slices; assay type: cell-based, mouse
Description: WT or Adrb2 BBMs were differentiated for 2 days with MCS-F and RANK-L, trypsinized and platted on dentine slices for 2 days. Resorption pits were stained with hematoxylin and resorption pit area was quantified (data not shown). To test whether sympathetic signaling could affect osteoclast function, we treated TRAP-positive multinucleated osteoclasts with isoproterenol.

osteoblasts and BMMs = experiment: Co-culture of osteoblasts and BMMs with 1,25-(OH)2 vitamin D3 (TRAP+ osteoclast count); assay type: cell-based, mouse; details: for number of TRAP-positive multinucleated osteoclasts in co-culture: WT osteoblasts and WT BMMs, ISO 10 uM, 4 days
Description: as §1, with “BBMs” for “(a) In vitro osteoclastogenesis is not affected by Adrb2 deficiency. BBMs”, “(b) In vitro osteoclast differentiation is not affected by Isoproterenol (ISO) treatment.” left out, “(d) ISO stimulated osteoclast differentiation via stimulation of b2AR in osteoblasts.” left out, “(e) ISO induced Rank-l expression in osteoblasts, via b2AR. (f) ISO induced IL6 expression in osteoblasts, via b2AR.” left out
To that end we performed co-culture of BMMs and osteoblasts prepared from mouse calvariae. In this assay treatment of osteoblasts with 1,25-(OH)2 vitamin D3 leads to the differentiation of BMMs into TRAP-positive multinucleated osteoclasts.

primary osteoblasts = experiment: Gene expression in primary osteoblasts by real-time RT-PCR; assay type: cell-based, mouse
Description: as §1, with “BBMs” for “(a) In vitro osteoclastogenesis is not affected by Adrb2 deficiency. BBMs”, “(b) In vitro osteoclast differentiation is not affected by Isoproterenol (ISO) treatment.” left out, “(d) ISO stimulated osteoclast differentiation via stimulation of b2AR in osteoblasts.” left out, “(e) ISO induced Rank-l expression in osteoblasts, via b2AR. (f) ISO induced IL6 expression in osteoblasts, via b2AR.” left out
To test this hypothesis we analyzed the expression in osteoblasts of genes encoding known regulators of osteoclast differentiation following treatment with isoproterenol.

WT mice [2] = experiment: Gene expression in bones of WT mice treated for 3 weeks; assay type: in vivo, mouse; details: 3 weeks treatment
Excerpt: To determine the biological relevance of these findings we performed two experiments. First, we treated WT mice with isoproterenol for 3 weeks and analyzed bone resorption parameters and bone expression of Rank-l and IL6 at the end of this treatment period. […] Second, to determine the role that this physiological regulation may have in pathological conditions such as bone loss developing after menopause, we ovariectomized WT and Adrb2−l− mice at one month of age and analyzed them 3 months later. […] The increase in bone formation that persisted together with the absence of any increase in bone resorption explained why Adrb2−/− mice maintained a higher bone mass than WT mice.

WT mice [3] = experiment: Bone remodeling parameters in treated WT mice; assay type: in vivo, mouse
Excerpt: (a) von Kossa staining of vertebral sections. Six month old Adrb2−/− and Adrb2+/− mice display an increase in bone volume over tissue volume (BV/TV) compared to wt littermates. (b) Bone formation parameters: bone formation rate (BFR), osteoblast surface over bone surface (ObS/BS) and osteoblast number over bone perimeter (ObNb/BPm) are increased in Adrb2−/− and Adrb2+/− mice. (c) Bone resorption parameters: osteoclast surface over bone surface (OcS/BS), osteoclast number over bone perimeter (OcNb/BPm) and urinary elimination of deoxypiridinoline (dpd) are decreased in Adrb2−/− and Adrb2+/− mice.
First, we analyzed mice lacking only one copy of Adrb2 and compared them to WT mice treated with propranolol, a β-adrenergic receptor antagonist whose administration enhances bone formation in mice. Expression of Adrb2 was first assayed in WT, Adrb2−/− and Adrb2+/− osteoblasts. […] This was due to both an increase in bone formation and a decrease in bone resorption (FIGS. 1b and 1c). To our knowledge, this high bone mass is the only phenotypic consequence reported so far in the case of haploinsufficiency at the Adrb2 locus.

WT mice [4] = details: stated as known property; cited from earlier work

## calcitonin
Mature osteoclasts
  intracellular cAMP production in osteoclasts: robust stimulation

## CC(C)NCC(O)c1ccc(O)c(O)c1 (stereo not drawn) [isoproterenol]
WT osteoblasts
  cAMP production in osteoblasts: enhances
WT osteoblasts; listed as Isoproterenol
  cAMP production in osteoblasts: stimulate
Mature osteoclasts
  intracellular cAMP production in osteoclasts: did not induce any significant
Mature osteoclasts; listed as ISO
  intracellular cAMP production in osteoclasts: does not induce
[1]
  number of TRAP-positive multinucleated osteoclasts: did not affect
[1]; listed as Isoproterenol
  number of TRAP-positive multinucleated osteoclasts: not affected
WT mature osteoclasts
  osteoclast function (pit formation / resorption pit area on dentine slices): did not affect
WT mature osteoclasts; listed as ISO
  osteoclast function (pit formation / resorption pit area on dentine slices): normal
Osteoblasts and BMMs; Adrb2−/− osteoblasts with WT BMMs
  osteoclast differentiation in co-culture: could not enhance
Osteoblasts and BMMs
  number of TRAP-positive multinucleated osteoclasts in co-culture: significantly increased
Osteoblasts and BMMs; listed as ISO
  number of TRAP-positive multinucleated osteoclasts in co-culture: stimulated
Osteoblasts and BMMs; WT osteoblasts with Adrb2−/− BMMs
  osteoclast differentiation in co-culture: increased
Primary osteoblasts; Adrb2−/− osteoblasts
  induction of Rank-l expression: not detected
Primary osteoblasts; ISO 10 μM
  IL6 expression in osteoblasts: increased
Primary osteoblasts; ISO 10 μM, listed as ISO
  IL6 expression in osteoblasts: induced
Primary osteoblasts; WT osteoblasts, ISO 10 μM
  Rank-l expression in osteoblasts (in words): induced
  increase of Rank-l expression: ~20 fold
Primary osteoblasts; osteoblasts, data not shown
  expression of IL2: did not affect
  expression of ILI α: did not affect
  expression of M-CSF: did not affect
  expression of osteoprotegerin (Opg): did not affect
WT mice [2]
  IL6 expression in bones: increased
  OPG expression in bones: unaffected
  Rank-l expression in bones: increased

## CC(CCc1ccc(O)cc1)NCCc1ccc(O)c(O)c1 (stereo not drawn) [dobutamol]
WT osteoblasts
  cAMP production in osteoblasts: did not and not

## CC(C)NCC(O)COc1cccc2ccccc12 (stereo not drawn) [propranolol]
WT mice [3]
  bone resorption parameters (OcS/BS, OcNb/BPm, urinary dpd): do not display a significant decrease; also recorded: did not affect
WT mice [4]
  bone formation: enhances

## CC(C)(C)NCC(O)c1ccc(O)c(CO)c1 (stereo not drawn) [salbutamol]
WT osteoblasts
  cAMP production in osteoblasts: stimulated

B1: Parathyroid hormone (peptide, UniProt P01270 32-115, looked up)
Parathyroid hormone: SVSEIQLMHNLGKHLNSMERVEWLRKKLQDVHNFVALGAPLAPRDAGSQRPRKKEDNVLVESHEKSLGEADKADVNVLTKAKSQ
modifications: Parathyroid hormone
notes: Parathyroid hormone (PTH)
WT osteoblasts
  cAMP production in osteoblasts: stimulate
